Experimental data: patent US20230119082A1, “(AZIRIDINYL HYDROXY)-FUNCTIONAL ORGANIC COMPOUNDS” (COVESTRO (NETHERLANDS) B.V., priority 2020, published 2023)

Tests used:
Bscl2-GFP = assay: in vitro; conditions: mouse; for fold induction at 3 h / fold induction at 24 h: −fold induction Bscl 2
Protocol: (§1) In the context of the specification, the genotoxicity is measured according to the ToxTracker® assay (Toxys, Leiden, the Netherlands) as described in the Examples.
(§2) The genotoxicity was determined according to the ToxTracker® assay (Toxys, Leiden, the Netherlands) as described below.
(§3) This methodology uses a two-step approach.
(§4) Positive reference treatment with cisplatin (DNA damage) was included in all experiments. Metabolic was evaluated by the addition of S9 liver extract. […] Only GFP expression in single intact cells is determined. Mean GFP fluorescence and cell concentrations in each well are measured, which is used for cytotoxicity assessment. Data were analyzed using ToxPlot software (Toxys, Leiden, the Netherlands).

Rtkn-GFP = assay: in vitro; conditions: mouse
Protocol: as §1, §2, §3, §4

SMILES: CC1CN1CC(O)CN(Cc1cccc(CN(CC(O)CN2CC2C)CC(O)CN2CC2C)c1)CC(O)CN1CC1C (stereo not drawn) [Example 2C]
- fold induction at 3 h (Bscl2-GFP): 1.3
- fold induction at 24 h (Bscl2-GFP): 1.3

SMILES: CC1CN1CC(O)COc1ccc(N(CC(O)CN2CC2C)CC(O)CN2CC2C)cc1 (stereo not drawn) [Example 3C]
- fold induction at 3 h (Bscl2-GFP): 1.2
- fold induction at 24 h (Bscl2-GFP): 1.1
- fold induction at 24 h (Rtkn-GFP): 1.7

SMILES: CC1CN1CC(O)COC(=O)NCCCCCCn1c(=O)n(CCCCCCNC(=O)OCC(O)CN2CC2C)c(=O)n(CCCCCCNC(=O)OCC(O)CN2CC2C)c1=O (stereo not drawn) [Example 3]
- −fold induction Bscl 2 (Bscl2-GFP; 3 h): 1.5 fold
- fold induction at 3 h (Bscl2-GFP): 1.2
- fold induction at 24 h (Bscl2-GFP): 1.1
- fold induction at 3 h (Rtkn-GFP): 1.1
- fold induction at 24 h (Rtkn-GFP): 1.2

SMILES: CC1CN1CC(O)COc1ccc(C(C)(C)c2ccc(OCC(O)CN3CC3C)cc2)cc1 (stereo not drawn) [Example 4C]
- fold induction at 3 h (Bscl2-GFP): 1.1
- fold induction at 24 h (Bscl2-GFP): 1.1
